Test [1] relates to neurons obtained from SHSY5Y cells. The test can be described thus: Anti-nociceptive/anti-inflammatory model, neurons stimulated with glycated collagen (GC): substance P and β-endorphin in supernatant. Type of test: cell-based. On the procedure: ANOVA and Dunnet * p<0.05; ** p<0.01 compared to glycated collagen (GC);
ANOVA and Dunnet * p<0.05 ** p<0.01, *** p<0.001 compared with GC;
The differentiation process consists of 6 stages distributed over 7 days. On the first day of the differentiation protocol (day 0), cells were seeded in collagen-coated plates. On days 1, 3, and 4 the culture medium was removed, and the differentiation medium containing 2% fetal bovine serum (FBS) and retinoic acid (RA) 10 μM) was added. On day 5, the medium was removed and the culture was incubated with culture medium and brain-derived neurotrophic factor (BDNF) (50 ng/mL). On day 7 of the differentiation process, differentiated neurons are fully ready for use (Agholme et al., 2010, with some modifications).
7×10^3 neurons/well were incubated with 10 μM of morphine (inhibitory response control) or peptides (200 nM and 500 nM) 3 hours before or 3 hours after incubation with IL-1β (10 ng/mL) or glycated collagen (GC) (100 μg/mL) (both positive controls for the release of substance P). After 24 hours of incubation, the cell viability assay and the detection of substance P and β-endorphin in the supernatant were performed. Multiplex with magnetic spheres (MILLIPLEX® MAP Magnetic Bead Panel)
ANOVA and Dunnet * p<0.05; ** p<0.01 compared to GC.
ANOVA and Dunnet * p<0.05 ** p<0.01, *** p<0.001 compared to GC.

Test [2] has as its system osteoclast precursors (PBMNC). In words: Osteoclast differentiation model, TRAP+ cell count. Type of test: cell-based, human. The following applies: peptide 200 nM added on day four to osteoclast precursor culture, 15 days; compared to positive control (CTRL). How it is done: A. Positive differentiation controls. B. Influence of synthetic peptides (200 nM) on osteoclast differentiation. C. Negative differentiation control. αMEM—Minimum Essential Medium Eagle Alpha Modification; FBS—fetal bovine serum; TRANCE—Tumor Necrosis Factor (TNF)-related Activation-induced Cytokine; M-CSF—Macrophage Colony-Stimulating Factor; TGF-β1—Transforming growth factor beta-1.
The present invention includes the culture of monocytic cells of human leukemia (THP-1), osteoclast, primary human blood-derived mononuclear cells (PBMNC), and human chondrocytes (NHAC-kn).
Negative differentiation controls. B. Influence of synthetic peptides (200 nM) on osteoclast differentiation.
PBMNC were isolated and, immediately after, plating inductive culture medium (composed of Alpha-MEM+10% FBS+MCSF [25 ng/mL]+RANKL [50 ng/mL]+TGF-beta 1 [5 ng/mL]+Dexamethasone [1 μM]) was added for 15 days. On day four, the L. obliqua venom at a concentration of […] or toxins at a concentration of 200 nM, each individually, was added to the osteoclast precursor culture and these culture conditions were maintained until the end of the differentiation. Then, the cells were fixed and stained with tartrate-resistant acid phosphatase (TRAP).

The subject of test [3] is human chondrocytes (NHAC-kn). The test can be described thus: Pro-inflammatory model of chondrocytes treated with IL-1β, cytokine release (Multiplex). It counts as cell-based. Conditions: chondrocytes treated with IL-1β (1 ng/mL). On the procedure:
Values were obtained from each analyte in pg/mL from treatment with the peptides in the presence of IL-1β (1 ng/mL). The data are presented as the mean±MSE (* p<0.05 when compared to the control with IL-1β, test t, n=3).
(B) Chondrocytes were pretreated for 1 hour with IL-1β (1 ng/mL) before the addition of peptides (200 nM, 500 nM, and 1.25 μM) and an additional incubation of 24 hours before collecting the supernatants.
The primary human chondrocytes used in this assay were purchased from Lonza: Normal Human Articular Primary chondrocytes (NHAC-Kn, #CC-2550, Lot 8F3336). Chondrocyte cell culture was performed in bottles (Sarstedt T175 and T75). The cells were cultivated in DMEM culture medium (Sigma) supplemented with 10% fetal bovine serum (FBS) (Sigma), incubated in an oven at 37° C. and 5% CO2, and cultures were used in the sixth passage. The culture medium was changed every two days until the culture reached 80% confluence.
The identification and quantitative analysis of the cytokines present in the peptide treatment supernatant were performed using the Luminex xMAP Milliplex MAP Human Cytokine/Chemokine Magnetic Bead Panel Catalog #HCYTOMAG-60K technology, according to the manufacturer's instructions.
Values were obtained from each analyte in pg/mL from treatment with the peptides in the presence of IL-1β (1 ng/mL). The data are presented as the mean±MSE (*p<0.05 when compared to the control with IL-1β, test t, n=3).

The subject of test [4] is THP-1 cells differentiated into macrophages. In words: LPS-induced cytokine production in THP-1-derived macrophages (Multiplex). Type of test: cell-based, human. How it is done:
THP-1 cells differentiated into macrophages were induced with LPS (10 ng/mL) and, one hour later, treated with synthetic peptides at a concentration of 200 nM. Dexamethasone (10 μM), an inflammatory inhibitor, was used as a control. After 24 hours, the culture medium was collected to measure the IL-1β (A), IL-6 (B), TNF-α (C), and IL-10 cytokines using a Multiplex kit. * p<0.05 vs. LPS; ** p<0.01 vs. LPS; *** p<0.005 vs. LPS;
THP-1 cells differentiated into macrophages were induced with LPS (10 ng/mL) and, one hour later, treated with L4 or D3 peptide (0.05 μM, 0.2 μM, 1 μM, and 2 μM). After 24 hours, the culture medium was collected and TNF-alpha, IL-6, IL-23, and IL-8 were measured by Multiplex. (A) L4 peptide. (B) D3 peptide;
Macrophages were obtained from the differentiation of monocytes THP-1. Briefly, 1×10^7 cells were treated in the RPMI medium with 25 nM PMA for 48 hours followed by 24 hours of rest in medium without PMA. Subsequently, the cells were released and plated for the respective treatments.
The kit is based on Luminex® xMAP® technology that allows the simultaneous analysis of various cytokines. The technique is based on marked magnetic fluorescent spheres, known as MagPlex®-C microspheres. These microspheres are covered with capture antibodies specific for IL-6 […], and specifically capture the analyte in the supernatant. Each microsphere was individually identified and the results were analyzed using Luminex® Xponent® 4.2 acquisition software.
THP-1 cells differentiated into macrophages were induced with LPS (10 ng/mL) and, one hour later, treated with synthetic peptides, […] (inflammation inhibitor, 10 μM). After 24 hours, the culture medium was collected and IL-1β (A), IL-6 (B), TNF-α (C), and IL-10 were measured by Multiplex. * p<0.05 vs. LPS; ** p<0.01 vs. LPS; *** p<0.005 vs. LPS.
THP-1 cells differentiated into macrophages were induced with LPS (10 ng/mL) and, one hour after, treated with L4 (0.05 μM, 0.2 μM, 1 μM, and 2 μM). After 24 hours, the culture medium was collected and TNF-α, IL-6, IL-23, and IL-8 were measured by Multiplex. (A) L4 peptide. (B) D3 peptide.

[5] abbreviates: peptide 200 nM incubated 3 hours after GC (100 μg/mL).
Where [6] appears, read: LPS 10 ng/mL, peptide 200 nM one hour later, 24 hours, vs group treated only with LPS.
Where [7] appears, read: dose-response 0.05, 0.2, 1 and 2 μM, LPS 10 ng/mL, 24 hours.

The source of these data is patent US20220324958A1, “ANTI-INFLAMMATORY PEPTIDES, PHARMACEUTICAL COMPOSITION CONTAINING SUCH PEPTIDES, AND USES THEREOF” (INSTITUTO BUTANTAN, priority 2019, published 2022).

“Also recorded” adds a separate entry of the source.

For the molecule “EEQTHFHFESPKLISFKVQDYWILNDIMKKNLTGISLKSEEEDADSGEID (Designated peptide based on the motif of a group of proteins called hemoline from lepidoptera acting as an anti-inflammatory molecule) [Cambly, peptide derived from the Amblyomin-X molecule with characteristics of CPP (cell-penetrating peptides)]”, the “production of Substance P” value in test [1] (setting [5]) is reported as “significantly inhibited”; in test [1] (peptide (200 nM and 500 nM) incubated 3 hours before GC (100 μg/mL)), “significantly decrease; also recorded: inhibited”. Further, the “production of β-endorphin” value in test [1] (setting [5]) is “increased”; in test [1] (peptide incubated 3 hours before GC (100 μg/mL)), “did not affect”. The “number of TRAP+ cells” value in test [2] is on record as “reduced”.
For “IWTKDGKAIT (Designated peptide based on the motif of a group of proteins called hemoline from lepidoptera acting as an anti-inflammatory molecule) [L1]”, the “anti-inflammatory activity (release of G-CSF, GM-CSF, IL-6, IL-8, MCP-1, TNF-α)” value in test [3] is listed as “anti-inflammatory activity”.
As for “NYFKNGKDVN (Designated peptide based on the motif of a group of proteins called hemoline from lepidoptera acting as an anti-inflammatory molecule) [L2]”, the “number of TRAP+ cells” value in test [2] is recorded as “no statistically significant difference”. Moreover, the “anti-inflammatory activity (release of G-CSF, GM-CSF, IL-6, IL-8, MCP-1, TNF-α)” value in test [3] is recorded as “anti-inflammatory activity”.
With “QPEISWTRNK (Designated peptide based on the motif of a group of proteins called hemoline from lepidoptera acting as an anti-inflammatory molecule) [L6]”, the “anti-inflammatory activity (release of G-CSF, GM-CSF, IL-6, IL-8, MCP-1, TNF-α)” value in test [3] is reported as “anti-inflammatory activity”.
Same read-out and setting: to “RWLKDGQAFH (Designated peptide based on the motif of a group of proteins called hemoline from lepidoptera acting as an anti-inflammatory molecule) [L8]” belongs “anti-inflammatory activity”; to “SWLKNGREFR (Designated peptide based on the motif of a group of proteins called hemoline from lepidoptera acting as an anti-inflammatory molecule) [L5]”, “anti-inflammatory activity”.
“TWNKKGKKVN (Designated peptide based on the motif of a group of proteins called hemoline from lepidoptera acting as an anti-inflammatory molecule) [L4]”: the “levels of IL-10 (anti-inflammatory cytokine)” value in test [4] (LPS 10 ng/mL, peptide 200 nM one hour later, 24 hours) is “increase”. In test [4] (setting [6]), the “levels of IL-1β” value is on record as “significantly reducing”, the “levels of IL-6” value was “significantly reducing” and the “levels of TNF-a” value was “significantly reducing”. In test [4] (setting [7]), the “dose achieving the greatest inhibition of IL-6 release” value was 200 nM, the “dose achieving the greatest inhibition of IL-8 release” value worked out at 200 nM, the “most effective dose concerning IL-23 release” value is 1 µM and the “most effective dose concerning TNF-α release” value is 1 µM. In addition, the “production of inflammatory cytokines in response to LPS (dose-dependent)” value in test [4] (dose-response 0.05-2 μM, TNF-α, IL-6, IL-23, IL-8) is “reduced”. The “anti-inflammatory activity (release of G-CSF, GM-CSF, IL-6, IL-8, MCP-1, TNF-α)” value in test [3] is “anti-inflammatory activity”.
With “VWRKNGKKVS (Designated peptide based on the motif of a group of proteins called hemoline from lepidoptera acting as an anti-inflammatory molecule) [L3]”, in test [3], the “anti-inflammatory activity (release of G-CSF, GM-CSF, IL-6, IL-8, MCP-1, TNF-α)” value is given as “anti-inflammatory activity”.
Consider “YSIVAGCL (Designated peptide based on the motif of a group of proteins called hemoline from lepidoptera acting as an anti-inflammatory molecule) [E8]”, for which, in test [1] (setting [5]), the “production of Substance P” value was “significantly inhibited” and the “production of β-endorphin” value is on record as “increased”. Further, the “anti-inflammatory activity (release of G-CSF, GM-CSF, IL-6, IL-8, MCP-1, TNF-α)” value in test [3] is “anti-inflammatory activity”.

B1: YAIGYSSKDYKGGGGEEQTHFHFESPKLISFKVQDYWILNDIMKKNLTGISLKSEEEDADSGEID (peptide)
chain: YAIGYSSKDYKGGGGEEQTHFHFESPKLISFKVQDYWILNDIMKKNLTGISLKSEEEDADSGEID
modifications: Designated peptide based on the motif of a group of proteins called hemoline from lepidoptera acting as an anti-inflammatory molecule
B1: in test [1] (setting [5]), the “production of Substance P” value is on record as “significantly inhibited” and the “production of β-endorphin” value is given as “increased”.

B2: YSIVAGSLGGGGEEQTHFHFESPKLISFKVQDYWILNDIMKKNLTGISLKSEEEDADSGEID (peptide)
chain: YSIVAGSLGGGGEEQTHFHFESPKLISFKVQDYWILNDIMKKNLTGISLKSEEEDADSGEID
modifications: Designated peptide based on the motif of a group of proteins called hemoline from lepidoptera acting as an anti-inflammatory molecule
For B2, in test [2], the “number of TRAP+ cells” value was “significant decrease; also recorded: reduced”.
